Legend:
Drosophila flies = experiment: Proboscis extension response (PER) behavioral assay; assay type: in vivo, Drosophila melanogaster
uninjected oocytes = experiment: Two-electrode voltage clamping on uninjected oocytes; assay type: cell-based, Xenopus laevis; details: 3 mM AITC, 1 mM CA, 0.1 mM NMM
dTRPA1 = target: T1, dTRPA1 (Drosophila melanogaster, UniProt Q7Z020); experiment: Larval neuromuscular junction electrophysiology, dTRPA1 expressed in motor neurons; assay type: cell-based; details: third instar larval muscles
T1 sequence (Q7Z020 1-1197): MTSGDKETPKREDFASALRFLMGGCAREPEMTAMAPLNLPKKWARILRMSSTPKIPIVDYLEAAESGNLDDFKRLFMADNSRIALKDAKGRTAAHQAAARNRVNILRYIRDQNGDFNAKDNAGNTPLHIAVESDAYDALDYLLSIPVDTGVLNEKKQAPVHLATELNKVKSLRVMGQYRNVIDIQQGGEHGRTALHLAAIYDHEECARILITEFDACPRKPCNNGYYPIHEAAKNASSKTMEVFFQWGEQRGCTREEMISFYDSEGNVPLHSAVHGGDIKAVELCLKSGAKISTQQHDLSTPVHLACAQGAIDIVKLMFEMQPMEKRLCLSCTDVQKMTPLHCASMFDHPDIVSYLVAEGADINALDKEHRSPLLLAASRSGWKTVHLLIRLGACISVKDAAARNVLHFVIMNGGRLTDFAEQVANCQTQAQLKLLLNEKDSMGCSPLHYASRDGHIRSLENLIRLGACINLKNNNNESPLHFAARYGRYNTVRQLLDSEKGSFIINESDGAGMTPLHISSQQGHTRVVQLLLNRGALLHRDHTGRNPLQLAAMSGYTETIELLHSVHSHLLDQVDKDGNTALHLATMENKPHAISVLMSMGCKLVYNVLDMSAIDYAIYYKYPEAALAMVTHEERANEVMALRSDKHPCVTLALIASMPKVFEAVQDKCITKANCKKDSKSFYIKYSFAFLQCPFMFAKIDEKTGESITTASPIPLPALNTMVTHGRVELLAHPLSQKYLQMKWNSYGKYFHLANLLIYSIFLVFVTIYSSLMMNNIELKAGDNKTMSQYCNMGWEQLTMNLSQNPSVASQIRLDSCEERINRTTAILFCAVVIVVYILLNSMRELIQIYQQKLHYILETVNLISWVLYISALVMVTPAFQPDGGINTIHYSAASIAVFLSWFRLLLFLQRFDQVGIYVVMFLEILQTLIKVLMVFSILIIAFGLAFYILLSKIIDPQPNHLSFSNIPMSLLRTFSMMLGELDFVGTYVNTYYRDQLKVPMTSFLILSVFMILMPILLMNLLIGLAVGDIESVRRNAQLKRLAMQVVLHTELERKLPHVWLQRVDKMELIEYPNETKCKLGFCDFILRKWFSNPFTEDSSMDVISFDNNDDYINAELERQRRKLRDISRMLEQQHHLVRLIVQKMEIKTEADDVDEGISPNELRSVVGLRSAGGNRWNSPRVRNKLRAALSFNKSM

Painless = target: T2, Painless (Drosophila melanogaster, UniProt Q9W0Y6); experiment: Larval neuromuscular junction electrophysiology, Painless expressed in motor neurons; assay type: cell-based; details: 500 μM, third instar larval muscles
T2 sequence (Q9W0Y6 1-913): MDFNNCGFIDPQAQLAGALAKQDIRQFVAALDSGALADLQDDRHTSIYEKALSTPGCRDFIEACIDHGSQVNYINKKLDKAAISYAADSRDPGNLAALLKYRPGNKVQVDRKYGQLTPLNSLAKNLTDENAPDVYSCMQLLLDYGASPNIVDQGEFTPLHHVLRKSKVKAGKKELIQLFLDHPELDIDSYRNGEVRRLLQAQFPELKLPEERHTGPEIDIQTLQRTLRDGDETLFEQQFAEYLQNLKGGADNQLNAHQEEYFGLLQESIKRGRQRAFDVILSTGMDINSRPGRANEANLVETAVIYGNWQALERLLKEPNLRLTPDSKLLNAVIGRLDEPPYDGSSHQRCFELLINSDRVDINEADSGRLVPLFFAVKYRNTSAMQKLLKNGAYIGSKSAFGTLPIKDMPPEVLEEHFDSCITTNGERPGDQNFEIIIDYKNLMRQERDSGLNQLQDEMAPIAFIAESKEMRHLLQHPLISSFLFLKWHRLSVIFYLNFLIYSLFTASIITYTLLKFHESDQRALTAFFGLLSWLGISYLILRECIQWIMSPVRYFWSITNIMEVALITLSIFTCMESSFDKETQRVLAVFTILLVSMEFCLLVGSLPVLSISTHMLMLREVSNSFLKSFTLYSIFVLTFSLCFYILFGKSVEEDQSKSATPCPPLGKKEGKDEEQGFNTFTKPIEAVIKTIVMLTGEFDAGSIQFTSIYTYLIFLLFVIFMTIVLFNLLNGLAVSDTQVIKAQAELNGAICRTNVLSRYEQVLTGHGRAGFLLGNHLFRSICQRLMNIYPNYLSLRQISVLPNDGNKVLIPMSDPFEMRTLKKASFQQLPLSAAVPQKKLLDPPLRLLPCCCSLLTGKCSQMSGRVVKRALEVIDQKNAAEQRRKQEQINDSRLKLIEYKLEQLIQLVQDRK

In the case of `O=CC=Cc1ccccc1` [CA, cinnamaldehyde], the “Effect on PER in dTrpA1 loss-of-function mutants” value (Drosophila flies; dTrpA1 loss-of-function mutants, ingestion permitted) was “no reduction”, the “Acceptance on first offering” value (Drosophila flies; first of five tastant offerings) was “usually accepted” and the “Effect on proboscis extension response (PER) / feeding” value (Drosophila flies; wild type flies, ingestion permitted, 350 mM sucrose with 2 mM AITC, 10 mM NMM or 6 mM CA) was “robustly inhibited”. The “Response of uninjected oocytes” value (uninjected oocytes) was “did not respond”, the “Excitatory junction potentials (EJPs) driven by dTRPA1-expressing motor neurons” value (dTRPA1) was “cinnamaldehyde-responsive” and the “Induction of EJPs in OK371>Painless animals” value (Painless) was “does not induce”.

Source: patent publication US9986740B2, “Methods of identifying insect-TRPA1 modulators” (BRANDEIS UNIVERSITY, priority 2010, dated 2018)
